Patent publication EP4692090A1 (Shanghai Fosun Pharmaceutical (Group) Co., Ltd., priority 2023, dated 2024)
Where two headings read alike, the source gives them in different places.

Experiments:
[1] = target: T1, ATR kinase (Homo sapiens, UniProt Q13535); test: Inhibitory effect on ATR kinase activity (Caliper mobility shift, FAM-labeled RAD17 peptide substrate); type: biochemical
T1 construct: purchased Eurofins 14-953
Procedure, shortened: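 Caliper mobility-shift assay with 1 nM ATR, FAM-labeled RAD17 peptide […] and 5 mM ATP in HEPES pH 7.5 with 10 mM MnCl2, run 3 h at 28 °C and stopped with EDTA. Compounds were tested in 10-point 3-fold dilutions from 1 µM. IC50 was fitted from % inhibition of substrate conversion versus blank control.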

[2] = tested on: LoVo cells; test: LoVo cell proliferation assay (CellTiter-Glo); type: cell-based; settings: maximum concentration 10 µM, 9 concentrations
Procedure, shortened: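 LoVo cells, 2,000 per well, were treated after overnight attachment with 9-point 3-fold dilutions from 10 µM for 5 days at 37 °C. Viability was read by CellTiter-Glo luminescence. Inhibition % was taken relative to DMSO control, and IC50 came from the concentration–inhibition curve.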

[3] = 1 nM ATR kinase (Eurofins), 28°C for 3 hours, maximum concentration 1 µM, 10 concentrations, read-out: ATR kinase IC50
[4] = Homo sapiens, LoVo, 120 h, LoVo cells, 2,000 cells per well, 5 days incubation, CellTiter-Glo, read-out: LoVo IC50
[5] = LoVo cells, 2,000 cells per well, 5 days incubation, CellTiter-Glo, read-out: LoVo IC50
[6] = read-out: ATR kinase IC50, 1 nM ATR kinase (Eurofins), 28°C for 3 hours, maximum concentration 1 µM, 10 concentrations
[7] = Homo sapiens, LoVo, 120 h, read-out: LoVo IC50 (nM), LoVo cells, 2,000 cells per well, 5 days incubation, CellTiter-Glo

T1 sequence (Q13535 whole entry): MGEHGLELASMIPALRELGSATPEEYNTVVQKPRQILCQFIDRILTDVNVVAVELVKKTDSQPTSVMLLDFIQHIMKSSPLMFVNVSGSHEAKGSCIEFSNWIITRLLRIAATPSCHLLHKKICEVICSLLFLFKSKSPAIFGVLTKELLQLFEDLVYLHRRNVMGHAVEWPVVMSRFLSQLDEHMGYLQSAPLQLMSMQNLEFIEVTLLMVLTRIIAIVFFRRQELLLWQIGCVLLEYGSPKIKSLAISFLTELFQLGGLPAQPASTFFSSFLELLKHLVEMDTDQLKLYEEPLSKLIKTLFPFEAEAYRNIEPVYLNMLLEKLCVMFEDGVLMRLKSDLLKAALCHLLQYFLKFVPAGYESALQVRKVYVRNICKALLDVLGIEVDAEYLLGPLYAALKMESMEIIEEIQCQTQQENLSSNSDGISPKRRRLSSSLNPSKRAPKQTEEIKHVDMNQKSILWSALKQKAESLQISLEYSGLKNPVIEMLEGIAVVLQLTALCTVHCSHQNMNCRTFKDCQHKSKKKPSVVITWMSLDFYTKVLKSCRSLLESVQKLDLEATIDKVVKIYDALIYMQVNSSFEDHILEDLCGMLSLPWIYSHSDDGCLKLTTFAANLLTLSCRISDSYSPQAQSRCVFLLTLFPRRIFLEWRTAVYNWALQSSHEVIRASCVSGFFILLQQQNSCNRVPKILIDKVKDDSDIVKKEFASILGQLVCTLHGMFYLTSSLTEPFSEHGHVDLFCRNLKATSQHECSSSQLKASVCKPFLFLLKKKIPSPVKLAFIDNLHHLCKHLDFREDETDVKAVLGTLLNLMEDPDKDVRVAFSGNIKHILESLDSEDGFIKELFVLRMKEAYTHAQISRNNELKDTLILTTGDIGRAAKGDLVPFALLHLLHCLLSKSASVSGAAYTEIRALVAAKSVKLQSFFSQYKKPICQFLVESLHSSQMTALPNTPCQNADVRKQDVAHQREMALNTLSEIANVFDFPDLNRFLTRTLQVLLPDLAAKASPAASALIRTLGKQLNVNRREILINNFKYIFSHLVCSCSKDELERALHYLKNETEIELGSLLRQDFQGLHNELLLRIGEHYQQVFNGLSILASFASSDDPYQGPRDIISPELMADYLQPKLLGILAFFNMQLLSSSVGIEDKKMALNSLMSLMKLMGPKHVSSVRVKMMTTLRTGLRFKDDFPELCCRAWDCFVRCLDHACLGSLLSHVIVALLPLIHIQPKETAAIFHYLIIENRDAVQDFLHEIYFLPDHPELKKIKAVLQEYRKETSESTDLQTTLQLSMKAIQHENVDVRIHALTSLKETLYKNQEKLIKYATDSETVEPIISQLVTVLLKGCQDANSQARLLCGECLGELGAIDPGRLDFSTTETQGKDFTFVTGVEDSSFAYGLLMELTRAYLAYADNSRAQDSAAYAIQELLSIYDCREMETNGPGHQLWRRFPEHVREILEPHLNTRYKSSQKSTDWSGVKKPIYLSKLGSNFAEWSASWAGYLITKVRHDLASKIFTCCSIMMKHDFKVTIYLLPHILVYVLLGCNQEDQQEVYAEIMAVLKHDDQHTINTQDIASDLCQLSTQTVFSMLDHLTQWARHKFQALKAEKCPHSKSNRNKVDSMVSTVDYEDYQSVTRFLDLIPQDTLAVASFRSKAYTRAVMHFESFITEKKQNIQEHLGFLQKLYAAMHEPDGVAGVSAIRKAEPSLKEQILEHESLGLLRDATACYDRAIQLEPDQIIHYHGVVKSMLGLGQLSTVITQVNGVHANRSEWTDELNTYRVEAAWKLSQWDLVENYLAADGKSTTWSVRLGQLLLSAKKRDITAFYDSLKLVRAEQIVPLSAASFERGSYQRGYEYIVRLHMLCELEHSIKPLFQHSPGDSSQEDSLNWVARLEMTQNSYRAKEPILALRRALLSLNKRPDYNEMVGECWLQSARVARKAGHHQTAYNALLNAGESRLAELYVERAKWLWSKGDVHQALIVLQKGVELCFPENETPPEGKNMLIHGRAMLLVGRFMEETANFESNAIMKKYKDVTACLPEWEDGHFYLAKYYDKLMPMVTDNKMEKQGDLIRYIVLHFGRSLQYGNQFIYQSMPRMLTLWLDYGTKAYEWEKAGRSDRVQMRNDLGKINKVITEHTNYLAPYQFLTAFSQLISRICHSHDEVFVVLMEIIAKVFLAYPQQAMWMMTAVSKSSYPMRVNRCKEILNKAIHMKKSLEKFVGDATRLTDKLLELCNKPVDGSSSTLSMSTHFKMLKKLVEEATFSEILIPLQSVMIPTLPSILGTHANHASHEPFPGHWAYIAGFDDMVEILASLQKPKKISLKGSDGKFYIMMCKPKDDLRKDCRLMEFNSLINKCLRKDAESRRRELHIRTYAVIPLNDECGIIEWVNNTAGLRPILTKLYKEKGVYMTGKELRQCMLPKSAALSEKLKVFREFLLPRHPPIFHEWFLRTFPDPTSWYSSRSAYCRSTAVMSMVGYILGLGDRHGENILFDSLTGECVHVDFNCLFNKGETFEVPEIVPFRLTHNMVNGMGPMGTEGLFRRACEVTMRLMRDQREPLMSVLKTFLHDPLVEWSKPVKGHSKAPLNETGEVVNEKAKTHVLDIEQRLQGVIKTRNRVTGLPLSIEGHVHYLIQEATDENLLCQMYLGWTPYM
T1 sequence (Q8WXE1 whole entry partner): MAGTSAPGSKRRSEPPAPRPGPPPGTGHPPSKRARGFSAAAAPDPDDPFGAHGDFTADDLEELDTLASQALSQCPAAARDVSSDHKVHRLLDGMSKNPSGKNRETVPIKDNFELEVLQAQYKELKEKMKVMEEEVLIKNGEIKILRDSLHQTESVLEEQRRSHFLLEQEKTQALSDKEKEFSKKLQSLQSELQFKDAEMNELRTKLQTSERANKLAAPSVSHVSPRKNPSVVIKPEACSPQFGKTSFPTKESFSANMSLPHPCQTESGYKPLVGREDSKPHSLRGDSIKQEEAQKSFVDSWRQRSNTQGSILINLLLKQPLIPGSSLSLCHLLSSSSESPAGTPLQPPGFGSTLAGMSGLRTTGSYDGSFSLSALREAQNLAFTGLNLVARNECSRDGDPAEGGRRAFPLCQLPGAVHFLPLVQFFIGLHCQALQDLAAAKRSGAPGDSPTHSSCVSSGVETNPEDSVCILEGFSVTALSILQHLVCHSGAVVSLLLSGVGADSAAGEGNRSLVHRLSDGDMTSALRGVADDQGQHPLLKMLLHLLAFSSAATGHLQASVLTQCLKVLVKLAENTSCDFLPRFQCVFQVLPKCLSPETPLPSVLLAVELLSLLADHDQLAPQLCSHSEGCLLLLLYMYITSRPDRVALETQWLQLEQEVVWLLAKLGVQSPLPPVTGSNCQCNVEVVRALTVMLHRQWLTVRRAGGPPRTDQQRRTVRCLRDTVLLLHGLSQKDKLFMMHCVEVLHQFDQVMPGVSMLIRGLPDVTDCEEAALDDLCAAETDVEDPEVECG

Row | SMILES | IC50 [1, 3] | IC50 [2, 4] | IC50 [1, 6] | IC50 [2, 7] | also measured
1 | [2H]C([2H])([2H])N1CCc2nn(-c3cc[nH]n3)c3nc(N4CCOC[C@H]4C)cc(c23)C1C (single isomer, unassigned) [Compound 47A] | < 10 nM | < 100 nM | – | – | –
2 | [2H]C([2H])([2H])N1CCc2nn(-c3cc[nH]n3)c3nc(N4CCOC[C@H]4C)cc(c23)C1C (single isomer, unassigned) [Compound 47B] | < 10 nM | – | – | – | IC50 [2, 5]: < 100 nM
3 | CCC1c2cc(N3CCOC[C@H]3C)nc3c2c(nn3-c2cc[nH]n2)CCN1S(=O)(=O)C1CC1 (single isomer, unassigned) [Compound 145A] | 10 to 100 nM | 100 to 1000 nM | – | – | –
4 | CC1NC(=O)Cn2nc(-c3cc[nH]n3)c3nc(N4CCOC[C@H]4C)cc1c32 (stereo partly drawn) [Compound 56, 6-methyl-4-((R)-3-methylmorpholinyl)-2-(1H-pyrazol-3-yl)-6,7-dihydro-1,3,7,9a-tetraazabenzo[cd]azulen-8(9H)-one] | – | – | 10 to 100 nM | > 1000 nM | –
5 | C[C@@H]1COCCN1c1cc2c3c(n1)c(-c1cc[nH]n1)nn3CCN(C1CC(F)(F)C1)C2 [Compound 52, (R)-4-(7-(3,3-difluorocyclobutyl)-2-(1H-pyrazol-3-yl)-6,7,8,9-tetrahydro-1,3,7,9a-tetraazabenzo[cd]azulen-4-yl)-3-methylmorpholine] | 10 to 100 nM | > 1000 nM | – | – | –
6 | C[C@@H]1COCCN1c1cc2c3c(n1)c(-c1cc[nH]n1)nn3CCN(C(=O)C1CC(F)(F)C1)C2 [Compound 53, (R)-(3,3-difluorocyclobutyl)(4-(3-methylmorpholino)-2-(1H-pyrazol-3-yl)-8,9-dihydro-1,3,7,9a-tetraazabenzo[cd]azulene-7(6H)-yl)methanone] | 10 to 100 nM | > 1000 nM | – | – | –
7 | CC1c2cc(N3CCOC[C@H]3C)nc3c2c(nn3-c2cc[nH]n2)CCN1CC1COC1 (single isomer, unassigned) [Compound 44A] | 10 to 100 nM | 100 to 1000 nM | – | – | –
8 | C[C@@H]1COCCN1c1cc2c3c(n1)c(-c1cc[nH]n1)nn3CCC(=O)N2CC#CC(C)(C)O [Compound 103, (R)-6-(4-hydroxy-4-methylpent-2-yn-1-yl)-4-(3-methylmorpholinyl)-2-(1H-pyrazol-3-yl)-8,9-dihydro-1,3,6,9a-tetraazabenzo[cd]azulene-7(6H)-one] | – | – | 10 to 100 nM | 100 to 1000 nM | –
9 | C[C@@H]1COCCN1c1cc2c3c(n1)c(-c1cc[nH]n1)nn3CCC(=O)N2C1CC1C(F)(F)F (stereo partly drawn) [Compound 96, 4-((R)-3-methylmorpholinyl)-2-(1H-pyrazol-3-yl)-6-(2-(trifluoromethyl)cyclopropyl)-8,9-dihydro-1,3,6,9a-tetraazabenzo[cd]azulene-7(6H)-one] | – | – | 10 to 100 nM | 100 to 1000 nM | –
10 | C[C@@H]1COCCN1c1cc2c3c(n1)c(-c1cc[nH]n1)nn3CCC(=O)N2C1CC2(CCC2)C1 [Compound 92, (R)-4-(3-methylmorpholino)-2-(1H-pyrazol-3-yl)-6-(spiro [3.3]hept-2-yl)-8,9-dihydro-1,3,6,9a-tetraazabenzo[cd]azulene-7(6H)-one] | 10 to 100 nM | 100 to 1000 nM | – | – | –
11 | C[C@@H]1COCCN1c1cc2c3c(n1)c(-c1cc[nH]n1)nn3CCC(=O)N2CC1(C)CC1 [Compound 87, (R)-6-((1-methylcyclopropyl)methyl)-4-(3-methylmorpholinyl)-2-(1H-pyrazol-3-yl)-8,9-dihydro-1,3,6,9a-tetraazabenzo[cd]azulene-7(6H)-one] | – | – | 10 to 100 nM | < 100 nM | –
12 | C[C@@H]1COCCN1c1cc2c3c(nn(-c4cc[nH]n4)c3n1)CCN(C1CCOC1)C2 (stereo partly drawn) [Compound 4, (3R)-4-(2-(1H-pyrazol-3-yl)-7-(tetrahydrofuran-3-yl)-6,7,8,9-tetrahydro-2H-1,2,3,7-tetraazabenzo[cd]azulen-4-yl)-3-methylmorpholine] | 10 to 100 nM | 100 to 1000 nM | – | – | –
13 | C[C@@H]1COCCN1c1cc2c3c(nn(-c4cc[nH]n4)c3n1)CCN(C)C2C1CC1 (single isomer, unassigned) [Compound 142A] | < 10 nM | < 100 nM | – | – | –
14 | C[C@@H]1COCCN1c1cc2c3c(nn(-c4cc[nH]n4)c3n1)CCN(C1CC(C(F)(F)F)C1)C2 (single isomer, unassigned) [Compound 13A] | 10 to 100 nM | – | – | – | IC50 [2, 5]: 100 to 1000 nM
15 | C[C@@H]1COCCN1c1cc2c3c(nn(-c4cc[nH]n4)c3n1)CCN(C)C2C1CC1 (single isomer, unassigned) [Compound 142B] | < 10 nM | – | – | – | IC50 [2, 5]: < 100 nM
16 | C[C@@H]1COCCN1c1cc2c3c(n1)c(-c1cc[nH]n1)nn3CCC(=O)N2C1(C)CC1 [Compound 88, (R)-6-(1-methylcyclopropyl)-4-(3-methylmorpholinyl)-2-(1H-pyrazol-3-yl)-8,9-dihydro-1,3,6,9a-tetraazabenzo[cd]azulene-7(6H)-one] | – | – | < 10 nM | < 100 nM | –
17 | C[C@@H]1COCCN1c1cc2c3c(n1)c(-c1cc[nH]n1)nn3CCC(=O)N2C1CC1(F)F (stereo partly drawn) [Compound 89, 6-(2,2-difluorocyclopropyl)-4-((R)-3-methylmorpholinyl)-2-(1H-pyrazol-3-yl)-8,9-dihydro-1,3,6,9a-tetraazabenzo[cd]azulene-7(6H)-one] | – | – | < 10 nM | 100 to 1000 nM | –
18 | CC(C)N1C(=O)CCn2nc(-c3cc[nH]n3)c3nc(N4CCOC[C@H]4C)cc1c32 [Compound 81, (R)-6-isopropyl-4-(3-methylmorpholinyl)-2-(1H-pyrazol-3-yl)-8,9-dihydro-1,3,6,9a-tetraazabenzo[cd]azulene-7(6H)-one] | – | – | < 10 nM | < 100 nM | –
19 | C[C@@H]1COCCN1c1cc2c3c(n1)c(-c1cc[nH]n1)nn3CCC(=O)N2CC(C)(C)O [Compound 95, (R)-6-(2-hydroxy-2-methylpropyl)-4-(3-methylmorpholinyl)-2-(1H-pyrazol-3-yl)-8,9-dihydro-1,3,6,9a-tetraazabenzo[cd]azulene-7(6H)-one] | – | – | 10 to 100 nM | 100 to 1000 nM | –
20 | CC(C)N1C(=O)CCc2nn(-c3cc[nH]n3)c3nc(N4CCOC[C@H]4C)cc1c23 [Compound 78, (R)-6-isopropyl-4-(3-methylmorpholino)-2-(1H-pyrazol-3-yl)-2,6,8,9-tetrahydro-7H-1,2,3,6-tetraazabenzo[cd]azulene-7-one] | < 10 nM | – | – | < 100 nM | –
21 | C[C@@H]1COCCN1c1cc2c3c(nn(-c4cc[nH]n4)c3n1)CCN(S(C)(=O)=O)C2 [Compound 22, (R)-3-methyl-4-(7-(methylsulfonyl)-2-(1H-pyrazol-3-yl)-6,7,8,9-tetrahydro-2H-1,2,3,7-tetraazabenzo[cd]azulen-4-yl)morpholine] | < 10 nM | < 100 nM | – | – | –
22 | C[C@@H]1COCCN1c1cc2c3c(nn(-c4cc[nH]n4)c3n1)CCN(C1CC1)C2=O [Compound 132, (R)-7-cyclopropyl-4-(3-methylmorpholino)-2-(1H-pyrazol-3-yl)-2,7,8,9-tetrahydro-6H-1,2,3,7-tetraazabenzo[cd]azulene-6-one] | 10 to 100 nM | < 100 nM | – | – | –
23 | C[C@@H]1COCCN1c1cc2c3c(nn(-c4cc[nH]n4)c3n1)CCOC21CCC1 [Compound 147, (R)-4-(3-Methylmorpholino)-2-(1H-pyrazol-3-yl)-8,9-dihydro-2H-7-oxa-1,2,3-triazaspiro[benzo[cd]azulene-6,1'-cyclobutane]-1(9a),2a,2a1(5a),4-tetraene] | – | – | – | < 100 nM | IC50 ([1]; ATR kinase IC50 (nM), 1 nM ATR kinase (Eurofins), 28°C for 3 hours, maximum concentration 1 µM, 10 concentrations): < 10 nM
24 | CC1c2cc(N3CCOC[C@H]3C)nc3c2c(nn3-c2cc[nH]n2)CCN1S(C)(=N)=O (single isomer, unassigned) [Compound 46C] | < 10 nM | – | – | – | IC50 [2, 5]: < 100 nM
25 | C[C@@H]1COCCN1c1cc2c3c(nn(-c4cc[nH]n4)c3n1)CCN(C(=O)C1CC3(C1)CC3(F)F)C2 (single isomer, unassigned) [Compound 20B] | 10 to 100 nM | – | – | – | IC50 [2, 5]: > 1000 nM
26 | CC1c2cc(N3CCOC[C@H]3C)nc3c2c(nn3-c2cc[nH]n2)CCN1S(C)(=O)=O (single isomer, unassigned) [Compound 39B] | < 10 nM | – | – | – | IC50 [2, 5]: > 1000 nM
27 | C[C@@H]1COCCN1c1cc2c3c(nn(-c4cc[nH]n4)c3n1)CCN(C(=O)C1CC3(C1)CC3(F)F)C2 (single isomer, unassigned) [Compound 20A] | 10 to 100 nM | > 1000 nM | – | – | –
28 | C[C@@H]1COCCN1c1cc2c3c(n1)c(-c1cc[nH]n1)nn3CCCN2C1CC1 [Compound 122, (R)-4-(6-cyclopropyl-2-(1H-pyrazol-3-yl)-6,7,8,9-tetrahydro-1,3,6,9a-tetraazabenzo[cd]azulen-4-yl)-3-methylmorpholine] | 10 to 100 nM | 100 to 1000 nM | – | – | –
29 | C[C@@H]1COCCN1c1cc2c3c(n1)c(-c1cc[nH]n1)nn3CCN2C [Compound 62, (R)-3-methyl-4-(5-methyl-1-(1H-pyrazol-3-yl)-4,5-dihydro-3H-2,2a,5,8-tetraazaacenaphthen-7-yl)morpholine] | 1000 to 2500 nM | > 1000 nM | – | – | –
30 | C[C@@H]1COCCN1c1cc2c3c(n1)c(-c1cc[nH]n1)nn3CCC(=O)N2C1CC(F)(F)C1 [Compound 109, (R)-6-(3,3-difluorocyclobutyl)-4-(3-methylmorpholinyl)-2-(1H-pyrazol-3-yl)-8,9-dihydro-1,3,6,9a-tetraazabenzo[cd]azulene-7(6H)-one] | – | – | 10 to 100 nM | 100 to 1000 nM | –
